Results from article PMC3069055, “Structural Asymmetry of Phosphodiesterase-9, Potential Protonation of a Glutamic Acid, and Role of the Invariant Glutamine” (PLoS ONE, 2011).
Values joined by “and” are separate entries in the source; they are usually repeats but may differ in a detail not shown here. Identical values can stand only once. Like-named read-outs stand apart in the source and are kept apart here. One block for each molecule: values may come before it.

Tests used:
[1] = target: T1, PDE9A2 Q453E mutant (PDE9Q453E) (Homo sapiens, UniProt O76083, Q513E); test: PDE9A2 enzymatic assay, IC50 of inhibitors (3H-cGMP substrate); format: biochemical
T1 construct: The catalytic domain of the PDE9Q453E mutant (10–15 mg/mL, amino acids 181–506); made in house; host or cells: E. coli BL21 (Codonplus)
Experimental: (§1) Each measurement was repeated two times. The reaction was carried out at room temperature for 15 min and then terminated by the addition of 0.2 M ZnSO4 and 0.2 M Ba(OH)2. […] Vmax and KM values were calculated by nonlinear regression on the curve of velocity versus substrate concentration and also by Eadie-Hofstee plot. […] The IC50 values were calculated by nonlinear regression.

PDE9A2 E406A mutant [2] = target: T2, PDE9A2 E406A mutant (Homo sapiens, UniProt O76083, E466A); test: as above; format: biochemical
T2 construct: The coding region for residues 181-506 of PDE9A2 was amplified by PCR; inferred from vector pET15b and Ni-NTA purification) (N); made in house; host or cells: E. coli BL21 (Codonplus)
Experimental: as §1

[3] = target: T3, wild type PDE9A2 catalytic domain (Homo sapiens, UniProt O76083); test: as above; format: biochemical
T3 construct: The coding region for residues 181-506 of PDE9A2 was amplified by PCR; inferred from vector pET15b and Ni-NTA purification) (N); made in house; host or cells: E. coli BL21 (Codonplus)
Experimental: as §1

PDE9A2 E406A mutant [4] = target: T2, PDE9A2 E406A mutant; test: Enzymatic assay, kinetic parameters with cAMP and cGMP as substrates; format: biochemical
Experimental: as §1

[5] = target: T3, wild type PDE9A2 catalytic domain; test: as above; format: biochemical; details: substrate
Experimental: as §1

[6] = target: T1, PDE9A2 Q453E mutant (PDE9Q453E); test: as above; format: biochemical
Experimental: as §1

PDE5A Q817A mutant = details: PDE5A Q817A versus wild type; cited from earlier work
[7] = target: the molecule itself; test: crystal structure; PDE9Q453E catalytic domain (10-15 mg/mL) co-crystallised with 2 mM IBMX, hanging drop, 2.0 M Na formate, 0.1 M HEPES pH 7.5, 5% xylitol, 4°C; (S)-BAY73-6691 complex by soaking; two molecules in the asymmetric unit
[8] = E406A compared with wild type enzyme

T2 sequence (O76083 241-566 E466A): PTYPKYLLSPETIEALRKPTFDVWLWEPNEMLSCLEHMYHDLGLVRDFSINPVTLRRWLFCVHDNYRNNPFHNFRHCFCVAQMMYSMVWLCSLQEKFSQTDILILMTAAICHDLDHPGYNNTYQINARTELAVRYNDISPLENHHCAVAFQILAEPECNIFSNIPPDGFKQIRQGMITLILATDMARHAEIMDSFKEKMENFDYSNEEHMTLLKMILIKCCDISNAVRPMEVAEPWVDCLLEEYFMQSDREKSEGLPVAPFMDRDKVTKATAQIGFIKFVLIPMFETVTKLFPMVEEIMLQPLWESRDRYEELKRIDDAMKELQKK
T3 sequence (O76083 241-566): as the sequence (O76083 241-566 E466A) above, with A226E counted along it

Molecule: C[C@@H](Cc1nc2c(cnn2-c2ccccc2Cl)c(=O)[nH]1)C(F)(F)F [(S)-BAY73-6691, 1-(2-chlorophenyl)-6-(3,3,3-trifluoro-2-methylpropyl)-1H-pyrazolo [3,4-d]pyrimidin-4(5H)-one]
fold increase of IC50 (affinity decrease), Q453E mutant versus wild type ([1]; Q453E IC50 relative to wild type IC50): > 1800 fold and 1800 fold

IC50 (PDE9A2 E406A mutant [2]): 31.7 ± 1.1 µM | IC50 [3]: 53.9 ± 1.1 µM
Molecule: CC(C)Cn1c(=O)n(C)c(=O)c2[nH]cnc21 [IBMX, 3-isobutyl-1-methylxanthine]

IC50 (PDE9A2 E406A mutant [2]; E406A mutant, 30 nM 3H-cGMP, read-out: IC50): 7.6 ± 1.1 µM | IC50 ([3]; wild type enzyme, 30 nM 3H-cGMP, read-out: IC50): 15.9 ± 1.2 µM | IC50 ([1]; Q453E mutant, 30 nM 3H-cGMP): 53.7 ± 1.2 µM
Molecule: CCCOc1ccccc1-c1nc2nn[nH]c2c(=O)[nH]1 [Zaprinast]

fold reduction of apparent affinity, E406A versus wild type (PDE9A2 E406A mutant [4]; [8]): 2 fold | fold reduction of catalytic activity, E406A versus wild type (PDE9A2 E406A mutant [4]; [8]): 2 fold | Km (PDE9A2 E406A mutant [4]; E406A, substrate): 0.311 ± 0.04 µM | Vmax (PDE9A2 E406A mutant [4]; E406A, substrate): 0.129 ± 0.004 µmol/mg/min | kcat (PDE9A2 E406A mutant [4]; E406A, substrate): 0.08±0.00 S^−1 | Km [5]: 0.113 ± 0.013 µM | Vmax [5]: 0.285 ± 0.008 µmol/mg/min | kcat [5]: 0.18±0.00 S^−1 | fold loss of enzymatic efficacy kcat/KM, Q453E versus wild type ([6]; Q453E compared with wild type enzyme): about 50 fold | Km ([6]; Q453E, substrate): 2.8 ± 0.18 µM | Vmax ([6]; Q453E, substrate): 0.139 ± 0.003 µmol/mg/min | kcat ([6]; Q453E, substrate): 0.09±0.00 S^−1
Molecule: Nc1nc2c(ncn2[C@@H]2O[C@@H]3COP(=O)(O)O[C@H]3[C@H]2O)c(=O)[nH]1 [cGMP]
fold reduction of cGMP affinity by Q817A mutation (PDE5A Q817A mutant): about 60 fold

B1: catalytic domain of the PDE9A2 Q453E mutant (amino acids 181-506) (domain or fragment, human, UniProt O76083-2 181-506, looked up)
chain: PTYPKYLLSPETIEALRKPTFDVWLWEPNEMLSCLEHMYHDLGLVRDFSINPVTLRRWLFCVHDNYRNNPFHNFRHCFCVAQMMYSMVWLCSLQEKFSQTDILILMTAAICHDLDHPGYNNTYQINARTELAVRYNDISPLENHHCAVAFQILAEPECNIFSNIPPDGFKQIRQGMITLILATDMARHAEIMDSFKEKMENFDYSNEEHMTLLKMILIKCCDISNEVRPMEVAEPWVDCLLEEYFMQSDREKSEGLPVAPFMDRDKVTKATAEIGFIKFVLIPMFETVTKLFPMVEEIMLQPLWESRDRYEELKRIDDAMKELQKK
notes: phosphodiesterase 9A, isoform PDE9A2, human, catalytic domain, residues 181-506, GenBank BC009047; numbers count on: PDE9A2; also called PDE9Q453E; PDE9 Q453E mutant; source: E. coli BL21 (Codonplus), purified (Ni-NTA, Q-Sepharose, Sephacryl S300)
binding result [7]: binds
